Test [1] addresses T1, DCLK1-FL1Δ D511N tubulin polymerisation (MAP function) (Homo sapiens, UniProt O15075, D511N).
T1 construct: DCLK1-FL1Δ (residues 50-686); 8XHis tag with TEV protease cleavage site (N); made in house; host or cells: Escherichia coli C41(DE3)
T1 sequence (O15075 50-686 isoform O15075-2 D511N): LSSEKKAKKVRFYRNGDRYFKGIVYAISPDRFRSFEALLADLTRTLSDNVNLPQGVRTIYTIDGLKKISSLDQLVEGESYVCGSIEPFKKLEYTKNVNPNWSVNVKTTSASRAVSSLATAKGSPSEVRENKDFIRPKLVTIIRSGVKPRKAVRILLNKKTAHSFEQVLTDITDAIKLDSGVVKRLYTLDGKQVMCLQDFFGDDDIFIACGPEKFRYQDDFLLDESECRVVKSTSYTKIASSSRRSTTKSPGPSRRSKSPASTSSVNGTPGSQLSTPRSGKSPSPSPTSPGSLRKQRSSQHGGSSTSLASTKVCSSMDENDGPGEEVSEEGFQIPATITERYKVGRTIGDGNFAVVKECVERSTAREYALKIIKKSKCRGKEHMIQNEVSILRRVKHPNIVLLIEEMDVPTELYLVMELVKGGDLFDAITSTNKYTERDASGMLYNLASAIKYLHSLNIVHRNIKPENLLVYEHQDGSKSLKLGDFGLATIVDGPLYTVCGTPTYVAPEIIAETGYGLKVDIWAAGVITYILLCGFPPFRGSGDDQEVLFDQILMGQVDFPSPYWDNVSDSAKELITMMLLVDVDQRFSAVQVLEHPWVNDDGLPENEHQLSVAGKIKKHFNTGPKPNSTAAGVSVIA
Put plainly: Tubulin polymerisation and pelleting assay with DCLK1-FL1Δ D511N. It is filed as biochemical. How it is done: Tubulin polymerisation assays were performed in buffer containing 80 mM PIPES at pH 6.9, 2.0 mM MgCl2, 0.5 mM EGTA, 2.5 mM β,γ-Methyleneguanosine 5’-triphosphate, and 10 μM tubulin and 5 μM DCLK1 for 1 h at 37 °C. For tubulin polymerisation in the presence of inhibitors, various concentrations of the inhibitors were first incubated with DCLK1 and allowed to stand on ice for 5 min before adding this mix to the tubulin polymerisation reaction. Following the tubulin polymerisation, the reaction mix was pelleted at 20,000 g for 20 min and the supernatant and the pellet fractions were run on a 12% SDS gel. The data shown are representative of two independent experiments.

In test [2] the target is T2, DCLK1-KD (residues 372-649) (Homo sapiens, UniProt O15075).
T2 construct: the DCLK1 kinase domain (DCLK1-KD; residues 372-649) by carrying out thermal stability assays; 8XHis tag with TEV protease cleavage site (N); made in house; host or cells: Escherichia coli C41(DE3)
T2 sequence (O15075 372-649 isoform O15075-2): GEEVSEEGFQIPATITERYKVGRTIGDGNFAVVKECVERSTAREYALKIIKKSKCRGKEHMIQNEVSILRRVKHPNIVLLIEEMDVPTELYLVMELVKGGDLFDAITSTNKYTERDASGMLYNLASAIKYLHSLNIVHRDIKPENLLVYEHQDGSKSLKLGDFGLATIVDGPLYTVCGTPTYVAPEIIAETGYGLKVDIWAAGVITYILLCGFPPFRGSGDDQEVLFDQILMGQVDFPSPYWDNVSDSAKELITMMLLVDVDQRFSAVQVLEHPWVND
Put plainly: Thermal shift stability assay, DCLK1-KD. It is filed as binding. To be noted: compound titration 2.5 to 40 μM. How it is done:
DCLK1 proteins were diluted in 150 mM NaCl, 20 mM Tris pH 8.0, 1 mM DTT to […] final concentration and assayed with the appropriate concentration of inhibitor in a total reaction volume of 25 μL. SYPRO Orange (Molecular Probes) was used as a fluorescence probe and detected at 530 nm. The data shown are representative of two independent experiments.

For `COc1cc(N2CCN(C)CC2)ccc1Nc1ncc2c(n1)N(C)c1ccccc1C(=O)N2CC(F)(F)F` [DCLK1-IN-1], in test [1] (20 μM or 40 μM, pelleting / SDS-PAGE (Fig. 5d)), the “effect on DCLK1-FL1Δ D511N ability to polymerise tubulin” value was “did not impact”. In addition, the “aggregation and pelleting of DCLK1-FL1Δ D511N upon centrifugation” value in test [1] (40 μM, without tubulin polymerisation (Fig. 5d lanes 12, 13)) was “does not cause”. The “binding by shift in melting temperature (ΔTm)” value in test [2] was “bind DCLK1-KD”.

The values are drawn from paper PMC8452690, “Structural basis for small molecule targeting of Doublecortin Like Kinase 1 with DCLK1-IN-1” (Communications Biology, 2021).
